Counter-ions that a name gives are not always drawn.

A word on the IC50: it is the concentration that gives 50% inhibition.

The target in the first experiment is T1, Lats1 (Homo sapiens, UniProt O95835).
T1 construct: purchased Carna 01-123
T1 sequence (O95835 1-1130): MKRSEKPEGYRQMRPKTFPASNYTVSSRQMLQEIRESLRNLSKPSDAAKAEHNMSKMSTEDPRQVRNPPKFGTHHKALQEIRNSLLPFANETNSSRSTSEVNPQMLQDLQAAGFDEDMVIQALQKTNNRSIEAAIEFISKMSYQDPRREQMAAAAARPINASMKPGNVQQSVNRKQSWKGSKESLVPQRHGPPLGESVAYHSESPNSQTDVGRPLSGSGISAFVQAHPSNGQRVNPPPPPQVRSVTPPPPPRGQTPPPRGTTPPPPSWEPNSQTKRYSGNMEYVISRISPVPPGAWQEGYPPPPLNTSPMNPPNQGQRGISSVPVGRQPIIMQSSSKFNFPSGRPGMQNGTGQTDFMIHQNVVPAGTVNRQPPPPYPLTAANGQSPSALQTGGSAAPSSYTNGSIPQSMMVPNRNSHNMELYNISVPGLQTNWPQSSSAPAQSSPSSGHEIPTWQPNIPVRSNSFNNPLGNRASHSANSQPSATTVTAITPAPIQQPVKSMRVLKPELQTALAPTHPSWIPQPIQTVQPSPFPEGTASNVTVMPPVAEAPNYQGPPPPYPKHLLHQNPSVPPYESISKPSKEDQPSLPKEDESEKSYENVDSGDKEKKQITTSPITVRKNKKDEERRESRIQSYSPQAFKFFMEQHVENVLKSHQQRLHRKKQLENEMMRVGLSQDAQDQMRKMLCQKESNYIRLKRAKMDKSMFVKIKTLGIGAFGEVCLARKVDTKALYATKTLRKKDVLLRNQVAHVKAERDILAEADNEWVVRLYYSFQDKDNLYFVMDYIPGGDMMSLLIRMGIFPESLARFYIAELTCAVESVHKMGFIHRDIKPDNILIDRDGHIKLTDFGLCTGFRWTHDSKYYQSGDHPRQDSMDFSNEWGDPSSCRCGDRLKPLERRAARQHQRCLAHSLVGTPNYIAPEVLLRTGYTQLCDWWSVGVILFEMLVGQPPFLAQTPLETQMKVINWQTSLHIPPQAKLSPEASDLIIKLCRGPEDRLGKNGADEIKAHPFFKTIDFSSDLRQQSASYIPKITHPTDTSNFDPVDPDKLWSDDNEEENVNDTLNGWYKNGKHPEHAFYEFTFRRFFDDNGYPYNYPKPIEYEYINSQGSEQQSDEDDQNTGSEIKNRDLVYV
Kind of experiment: In vitro kinase assay (HTRF KinEASE-STK S1) Lats1, 2 mM ATP. It counts as biochemical.
Conditions: not given
The procedure:
(§1) Reactions were conducted with 10 μM STK1 substrate and 10 μM ATP or 2 mM ATP as shown below. […] The enzyme, substrate, ATP, and test compound of the invention were combined in a low-volume 384-well plate and shaken for 50 min at room temperature, unless otherwise indicated. The reaction was stopped by adding the detection reagents, which were prepared at an 8:1 biotin:streptavidin ratio and shaking for 60 min at room temperature. All reactions were conducted in triplicate and a Synergy NEO (Biotek) was used to detect the signal.
Assay was carried out in a 384 well plate. Each drug dosage curve was done with 16 points of 3-fold dilutions in 100% DMSO, and triplicate.
For orientation: Time-resolved FRET reads energy transfer from a long-lived donor to a nearby acceptor.
For the compound `Cc1ccccc1-n1ccs/c1=N\C(=O)c1c[nH]c2ncccc12` [T19], the concentration for half-maximal inhibition (IC50) was 0.3 nM.

As to `COc1ccc(-n2ccs/c2=N\C(=O)c2c[nH]c3ncccc23)cc1` [T24], the IC50 amounted to 112 nM. Same read-out and setting: the figure for `O=C(/N=c1\sccn1-c1ccc(Cl)cc1)c1c[nH]c2ncccc12` [T27] is 44.9 nM; for `O=C(/N=c1\sccn1-c1ccccc1Br)c1c[nH]c2ncccc12` [T29] it is 20.5 nM. Still for that read-out and setting: for `O=C(/N=c1\sccn1-c1ccccn1)c1c[nH]c2ncccc12` [T30] the value was 279 nM.

As to `O=C(/N=c1\sccn1-c1cccnc1)c1c[nH]c2ncccc12` [T31], the 50% inhibitory concentration (IC50) came to 3800 nM. On the same count and under the same terms, the figure for `NCc1ccccc1-n1ccs/c1=N\C(=O)c1c[nH]c2ncccc12` [T32] is 43 nM; for `Nc1cc(-n2ccs/c2=N\C(=O)c2c[nH]c3ncccc23)ccn1` [T35] it is 329 nM. Still for that read-out and setting: the figure for `O=C(/N=c1\sccn1-c1ccc(CO)cc1)c1c[nH]c2ncccc12` [T36] is 60 nM; for `O=C(O)CCn1ccs/c1=N\C(=O)c1c[nH]c2ncccc12` [T51, (Z)-3-(2-((1H-pyrrolo[2,3-b]pyridine-3-carbonyl)imino)thiazol-3(2H)-yl)propanoic acid] it is 607 nM. Still for that read-out and setting: the figure for `O=C(/N=c1\sccn1Cc1ccncc1)c1c[nH]c2ncccc12` [T52, (Z)—N-(3-(pyridin-4-ylmethyl)thiazol-2(3H)-ylidene)-1H-pyrrolo[2,3-b]pyridine-3-carboxamide] is 4880 nM; for `O=C(/N=c1\sccn1Cc1cccnc1)c1c[nH]c2ncccc12` [T53, (Z)—N-(3-(pyridin-3-ylmethyl)thiazol-2(3H)-ylidene)-1H-pyrrolo[2,3-b]pyridine-3-carboxamide] it is 1100 nM.

Regarding `O=C(/N=c1\sccn1Cc1ccccn1)c1c[nH]c2ncccc12` [T54], the half-inhibitory concentration (IC50) was 11000 nM.

Take `O=C(/N=c1\sccn1C1CCCCC1)c1c[nH]c2ncccc12` [T57, (Z)—N-(3-cyclohexylthiazol-2(3H)-ylidene)-1H-pyrrolo[2,3-b]pyridine-3-carboxamide]: the half-maximal inhibitory concentration (IC50) turned out to be 0.5 nM. Same read-out and setting: the figure for `NC(=O)c1cccc(-n2ccs/c2=N\C(=O)c2c[nH]c3ncccc23)c1` [T60] is 418 nM. As to `NCc1cccc(-n2ccs/c2=N\C(=O)c2c[nH]c3ncccc23)c1` [T61, (Z)—N-(3-(3-(aminomethyl)phenyl)thiazol-2(3H)-ylidene)-1H-pyrrolo[2,3-b]pyridine-3-carboxamide], the IC50 was 18.6 nM.

In the case of `CC(C)c1cs/c(=N\C(=O)c2c[nH]c3ncccc23)n1Cc1ccccc1` [T69], the IC50 was 168 nM.

Regarding `O=C(/N=c1\scc(C(F)(F)F)n1Cc1ccccc1)c1c[nH]c2ncccc12` [T71], the concentration for half-maximal inhibition (IC50) came to 176 nM. For the compound `O=C(/N=c1\scc(CO)n1Cc1ccccc1)c1c[nH]c2ncccc12` [T72, (Z)—N-(3-benzyl-4-(hydroxymethyl)thiazol-2(3H)-ylidene)-1H-pyrrolo[2,3-b]pyridine-3-carboxamide], the IC50 came out at 0.2 nM. Still for that read-out and setting: the figure for `Cc1cs/c(=N\C(=O)c2c[nH]c3ncccc23)n1C1CCCCC1` [T74] is 0.2 nM; for `O=C(/N=c1\sccn1C1CCNCC1)c1c[nH]c2ncccc12` [T75, (Z)—N-(3-(piperidin-4-yl)thiazol-2(3H)-ylidene)-1H-pyrrolo[2,3-b]pyridine-3-carboxamide hydrochloride] it is 92.5 nM.

As to `O=C(/N=c1\sccn1C1CCOCC1)c1c[nH]c2ncccc12` [T76], the IC50 was 2190 nM. `CCOC(=O)c1cs/c(=N\C(=O)c2c[nH]c3ncccc23)n1Cc1ccccc1` [T79, Ethyl (2Z)-3-benzyl-2-(1H-pyrrolo[2,3-b]pyridine-3-carbonylimino)thiazole-4-carboxylate]: the half-inhibitory concentration (IC50) worked out at 22 nM.

In the case of `CN(C)CCNC(=O)c1cs/c(=N\C(=O)c2c[nH]c3ncccc23)n1Cc1ccccc1` [T80, (Z)-3-Benzyl-N-[2-(dimethylamino)ethyl]-2-(1H-pyrrolo[2,3-b]pyridine-3-carbonylimino)thiazole-4-carboxamide], the IC50 amounted to 82 nM. On the same count and under the same terms, for `CN(C)C(=O)c1cs/c(=N\C(=O)c2c[nH]c3ncccc23)n1-c1ccccc1Cl` [T82] the value was 20 nM.

Still in this experiment, the particulars now being: 2 mM ATP; read-out: LATS1_HTRF_2 mM ATP IC50.
As to `Cc1ccnc2[nH]cc(C(=O)/N=c3\sccn3Cc3ccccc3)c12` [T05], the half-maximal inhibitory concentration (IC50) is 3260 nM. `Cc1cccc(-n2ccs/c2=N\C(=O)c2c[nH]c3ncccc23)c1` [T20]: the 50% inhibitory concentration (IC50) amounted to 155 nM. For the compound `Cc1ccc(-n2ccs/c2=N\C(=O)c2c[nH]c3ncccc23)cc1` [T21], the IC50 stood at 7.5 nM.

With `COc1ccccc1-n1ccs/c1=N\C(=O)c1c[nH]c2ncccc12` [T22], the half-inhibitory concentration (IC50) is 720 nM. Still for that read-out and setting: the figure for `COc1cccc(-n2ccs/c2=N\C(=O)c2c[nH]c3ncccc23)c1` [T23] is 576 nM; for `N#Cc1ccccc1-n1ccs/c1=N\C(=O)c1c[nH]c2ncccc12` [T28] it is 194 nM.

With `O=C(/N=c1\sccn1CC1CCOCC1)c1c[nH]c2ncccc12` [T56], the IC50 turned out to be 1020 nM. Still for that read-out and setting: for `Cn1cc(Cn2ccs/c2=N\C(=O)c2c[nH]c3ncccc23)cn1` [T59] the value was 6060 nM; for `O=C(/N=c1\sccn1-c1ccc2c(c1)CNCC2)c1c[nH]c2ncccc12` [T62, (Z)—N-(3-(1,2,3,4-tetrahydroisoquinolin-7-yl)thiazol-2(3H)-ylidene)-1H-pyrrolo[2,3-b]pyridine-3-carboxamide], 126 nM. Same read-out and setting: the figure for `Cn1c(Cc2ccccc2)cs/c1=N\C(=O)c1c[nH]c2ncccc12` [T64] is 7860 nM; for `O=C(/N=c1\sccn1-c1ccccc1Cl)c1c[nH]c2ncccc12` [T65] it is 0.1 nM; for `O=C(/N=c1\sccn1-c1cccc(Cl)c1)c1c[nH]c2ncccc12` [T66] it is 193 nM.

As for `CCc1cs/c(=N\C(=O)c2c[nH]c3ncccc23)n1Cc1ccccc1` [T68], the IC50 worked out at 59.5 nM. On the same count and under the same terms, for `Cc1cs/c(=N\C(=O)c2c[nH]c3ncccc23)n1CC1CCCCC1` [T73] the value was 0.8 nM; for `Cc1co/c(=N\C(=O)c2c[nH]c3ncccc23)n1Cc1ccccc1` [T77, (Z)—N-(3-benzyl-4-methyloxazol-2(3H)-ylidene)-1H-pyrrolo[2,3-b]pyridine-3-carboxamide], 107 nM. On the same count and under the same terms, for `O=C(/N=c1\occ(CO)n1Cc1ccccc1)c1c[nH]c2ncccc12` [T78, (Z)—N-(3-benzyl-4-(hydroxymethyl)oxazol-2(3H)-ylidene)-1H-pyrrolo[2,3-b]pyridine-3-carboxamide] the value was 1.6 nM; for `CNC(=O)c1cs/c(=N\C(=O)c2c[nH]c3ncccc23)n1-c1ccccc1Cl` [T81], 3.67 nM.

The target in another experiment is T1, Lats1. Description: In vitro kinase assay (HTRF KinEASE-STK S1) Lats1, 10 uM ATP. It counts as biochemical. The following applies: 10 uM ATP; read-out: LATS1_HTRF_10 uM ATP IC50. The procedure:
IVKA assay at 10 uM method:
as §1
Take `Cc1ccc2c(C(=O)/N=c3\sccn3Cc3ccccc3)c[nH]c2n1` [T02]: the IC50 worked out at 5840 nM. Still for that read-out and setting: for `Cc1cnc2[nH]cc(C(=O)/N=c3\sccn3Cc3ccccc3)c2c1` [T03] the value was 148 nM; for `Cc1[nH]c2ncccc2c1C(=O)/N=c1\sccn1Cc1ccccc1` [T04], 159 nM; for `O=C(/N=c1\sccn1Cc1ccccc1)c1c[nH]c2ncc(Cl)cc12` [T06], 92.2 nM.

Turning to `Cc1cn(Cc2ccccc2)/c(=N/C(=O)c2c[nH]c3ncccc23)s1` [T26], the IC50 worked out at 74.5 nM. The same measure, in the same setting: the figure for `COC(=O)c1cccc(Cn2ccs/c2=N\C(=O)c2c[nH]c3ncccc23)c1` [T33] is 224 nM; for `O=C(O)c1cccc(Cn2ccs/c2=N\C(=O)c2c[nH]c3ncccc23)c1` [T34] it is 6250 nM. For `Cn1ccs/c1=N\C(=O)c1c[nH]c2ncccc12` [T37, (Z)—N-(3-methylthiazol-2(3H)-ylidene)-1H-pyrrolo[2,3-b]pyridine-3-carboxamide], the half-maximal inhibitory concentration (IC50) is 233 nM. Regarding `CCn1ccs/c1=N\C(=O)c1c[nH]c2ncccc12` [T38, (Z)—N-(3-ethylthiazol-2(3H)-ylidene)-1H-pyrrolo[2,3-b]pyridine-3-carboxamide], the IC50 worked out at 27 nM. On the same count and under the same terms, the figure for `O=C(/N=c1\sccn1CCc1ccccc1)c1c[nH]c2ncccc12` [T40] is 88.7 nM.

These data come from patent US12617785B2, “Pyrrolo[2,3-b]pyridine-3-carboxamide compositions and methods for ameliorating hearing loss” (priority 2020, dated 2026).
